Reference: article PMC3433420 (PLoS ONE, 2012)
Residues, ends and D or L forms follow the SMILES beside them.

Assays:
PIK3R1-N SH2 domain = molecular target: T1, PIK3R1-N SH2 domain (Homo sapiens, UniProt P27986); test: biochemical; assay type: binding; conditions: high-confidence ErbB interactions
T1 construct: thioredoxin; made in house; host or cells: E. coli BL21(DE3)pLysS

[1] = molecular target: PIK3R2-NC tandem SH2 domains (Homo sapiens, UniProt O00459); test: FP saturation binding assay
SH2 and PTB domains = molecular target: T2, SH2 and PTB domains (Homo sapiens, UniProt P16885); test: In-house protein microarrays (with or without 5 mM DTT), protein named per line; assay type: binding
T2 construct: thioredoxin; made in house; host or cells: BL21(DE3)pLysS E. coli
T2 sequence (P16885 1-1265): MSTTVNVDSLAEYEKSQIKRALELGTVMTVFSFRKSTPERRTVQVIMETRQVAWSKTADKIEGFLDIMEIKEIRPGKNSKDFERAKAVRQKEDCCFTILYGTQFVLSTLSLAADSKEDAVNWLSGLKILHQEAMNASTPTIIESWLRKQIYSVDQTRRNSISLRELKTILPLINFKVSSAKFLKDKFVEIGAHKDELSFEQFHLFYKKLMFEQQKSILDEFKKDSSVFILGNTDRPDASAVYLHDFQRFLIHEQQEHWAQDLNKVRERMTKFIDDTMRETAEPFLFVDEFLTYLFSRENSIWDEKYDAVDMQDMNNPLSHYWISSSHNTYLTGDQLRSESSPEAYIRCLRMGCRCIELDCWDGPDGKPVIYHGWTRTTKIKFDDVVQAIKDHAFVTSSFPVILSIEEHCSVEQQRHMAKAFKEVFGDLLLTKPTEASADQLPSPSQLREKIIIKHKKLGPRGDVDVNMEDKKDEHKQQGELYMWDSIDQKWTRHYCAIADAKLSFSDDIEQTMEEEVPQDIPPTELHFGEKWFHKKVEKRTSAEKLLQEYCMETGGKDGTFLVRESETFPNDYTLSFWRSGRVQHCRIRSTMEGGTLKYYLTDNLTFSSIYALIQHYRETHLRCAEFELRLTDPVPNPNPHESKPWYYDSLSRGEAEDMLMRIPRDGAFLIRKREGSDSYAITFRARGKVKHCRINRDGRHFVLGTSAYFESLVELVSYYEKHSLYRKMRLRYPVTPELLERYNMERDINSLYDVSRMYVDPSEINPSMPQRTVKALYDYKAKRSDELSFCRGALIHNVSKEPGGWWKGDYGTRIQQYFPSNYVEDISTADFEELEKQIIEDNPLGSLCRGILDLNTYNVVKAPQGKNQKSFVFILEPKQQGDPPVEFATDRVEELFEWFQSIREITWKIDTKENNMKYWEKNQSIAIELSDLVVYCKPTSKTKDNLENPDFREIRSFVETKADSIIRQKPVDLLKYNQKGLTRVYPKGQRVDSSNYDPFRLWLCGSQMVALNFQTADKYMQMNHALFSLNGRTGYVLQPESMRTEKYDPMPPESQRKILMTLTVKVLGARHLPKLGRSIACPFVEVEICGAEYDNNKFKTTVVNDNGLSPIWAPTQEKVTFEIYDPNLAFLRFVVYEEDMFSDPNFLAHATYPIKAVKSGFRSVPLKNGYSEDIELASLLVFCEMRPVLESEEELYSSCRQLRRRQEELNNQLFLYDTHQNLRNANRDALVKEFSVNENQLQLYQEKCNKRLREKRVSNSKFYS
Procedure, shortened: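 Recombinant domains (~40 µM) spotted in duplicate on aldehyde slides, quenched 1 h at room temperature in HEPES/KCl/Tween-20 buffer pH 7.8 with 5 mM DTT and 1% BSA, then probed with rhodamine-labeled peptide. Thioredoxin-subtracted mean fluorescence fitted for KD.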

[2] = Protein PIK3R1-N, FP saturation binding, mean over replicate hits
[3] = protein PLCG2-NC, PM assay replicate # 39336, array fabrication # 39329
[4] = protein PLCG2-NC, PM assay replicate # 39337, array fabrication # 39329
[5] = protein PLCG2-NC, PM assay replicate # 39352, array fabrication # 39336

T1 sequence (P27986 333-428 limits assumed): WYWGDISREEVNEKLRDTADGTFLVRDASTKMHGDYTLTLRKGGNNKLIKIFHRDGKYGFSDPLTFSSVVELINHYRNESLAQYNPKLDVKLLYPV
Sequence of PIK3R2-NC tandem SH2 domains (O00459 330-716 limits assumed): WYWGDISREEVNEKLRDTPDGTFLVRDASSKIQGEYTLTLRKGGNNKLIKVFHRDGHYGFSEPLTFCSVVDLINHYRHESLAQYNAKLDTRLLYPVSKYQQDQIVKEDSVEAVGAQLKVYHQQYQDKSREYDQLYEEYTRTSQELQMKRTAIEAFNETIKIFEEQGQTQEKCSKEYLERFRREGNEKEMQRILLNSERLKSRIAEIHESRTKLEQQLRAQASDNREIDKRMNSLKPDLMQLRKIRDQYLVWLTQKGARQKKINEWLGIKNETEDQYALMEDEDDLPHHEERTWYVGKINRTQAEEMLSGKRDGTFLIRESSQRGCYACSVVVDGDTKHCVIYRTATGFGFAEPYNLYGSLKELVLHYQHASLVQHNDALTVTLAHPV

SMILES: CC(C)C[C@H](NC(=O)[C@H](Cc1ccc(OP(=O)(O)O)cc1)NC(=O)[C@H](CCC(=O)O)NC(=O)[C@H](CCC(=O)O)NC(=O)[C@H](C)NC(=O)[C@@H](N)CC(=O)O)C(=O)N[C@H](C(=O)N1CCC[C@H]1C(=O)N[C@@H](CCC(N)=O)C(=O)N[C@@H](CCC(N)=O)C(=O)NCC(=O)N[C@@H](Cc1ccccc1)C(=O)N[C@@H](CC(=O)O)C(=O)O)C(C)C [ErbB2 1023 13-mer] (HELM PEPTIDE1{D.A.E.E.[O=C([C@H](Cc1ccc(OP(=O)(O)O)cc1)N[*:1])[*:2]].L.V.P.Q.Q.G.F.D}$$$$V2.0)
- Kd (PIK3R1-N SH2 domain; [2]): 15.8 µM
- Kd [1]: 6.09 µM

SMILES: CC(C)[C@H](NC(=O)[C@H](CC(=O)O)NC(=O)[C@@H]1CCCN1C(=O)[C@H](CCC(N)=O)NC(=O)[C@H](CC(N)=O)NC(=O)[C@@H](NC(=O)[C@H](Cc1ccc(OP(=O)(O)O)cc1)NC(=O)[C@H](CCC(=O)O)NC(=O)[C@@H]1CCCN1C(=O)[C@H](CCC(N)=O)NC(=O)[C@@H]1CCCN1)C(C)C)C(=O)N[C@@H](CCCNC(=N)N)C(=O)N[C@@H](CC(=O)O)C(=O)O [ErbB2 1139 13-mer] (HELM PEPTIDE1{P.Q.P.E.[O=C([C@H](Cc1ccc(OP(=O)(O)O)cc1)N[*:1])[*:2]].V.N.Q.P.D.V.R.D}$$$$V2.0)
- Kd [1]: 5.81 µM

SMILES: CC(C)C[C@H](NC(=O)[C@H](CC(N)=O)NC(=O)[C@@H](N)CC(=O)O)C(=O)N[C@@H](Cc1ccc(O)cc1)C(=O)N[C@@H](Cc1ccc(OP(=O)(O)O)cc1)C(=O)N[C@@H](Cc1c[nH]c2ccccc12)C(=O)N[C@@H](CC(=O)O)C(=O)N[C@@H](CCC(N)=O)C(=O)N[C@@H](CC(=O)O)C(=O)N1CCC[C@H]1C(=O)N1CCC[C@H]1C(=O)N[C@@H](CCC(=O)O)C(=O)N[C@@H](CC(=O)O)C(=O)O [ErbB2 1222 13-mer] (HELM PEPTIDE1{D.N.L.Y.[O=C([C@H](Cc1ccc(OP(=O)(O)O)cc1)N[*:1])[*:2]].W.D.Q.D.P.P.E.D}$$$$V2.0)
- Kd (PIK3R1-N SH2 domain; [2]): 10.7 µM
- Kd [1]: 7.81 µM

SMILES: CC(C)C[C@H](NC(=O)[C@@H]1CCCN1)C(=O)N[C@@H](CCC(N)=O)C(=O)N[C@@H](CCCNC(=N)N)C(=O)N[C@@H](Cc1ccc(OP(=O)(O)O)cc1)C(=O)N[C@@H](CO)C(=O)N[C@@H](CCC(=O)O)C(=O)N[C@@H](CC(=O)O)C(=O)N1CCC[C@H]1C(=O)N[C@H](C(=O)N[C@H](C(=O)N1CCC[C@H]1C(=O)N[C@@H](CC(=O)O)C(=O)O)C(C)C)[C@@H](C)O [ErbB2 pY1112] (HELM PEPTIDE1{P.L.Q.R.[O=C([C@H](Cc1ccc(OP(=O)(O)O)cc1)N[*:1])[*:2]].S.E.D.P.T.V.P.D}$$$$V2.0)
- Kd (SH2 and PTB domains; protein PLCG2-NC, PM assay replicate # 39331, array fabrication # 39329): 5.53 µM
- Kd (SH2 and PTB domains; [3]): 0.93 µM

SMILES: CC(C)C[C@H](NC(=O)[C@@H]1CCCN1C(=O)[C@H](C)NC(=O)[C@@H](NC(=O)[C@H](Cc1ccc(OP(=O)(O)O)cc1)NC(=O)CNC(=O)[C@H](CC(=O)O)NC(=O)[C@@H](NC(=O)[C@@H](N)CCC(=O)O)[C@@H](C)O)C(C)C)C(=O)N[C@H](C(=O)N[C@@H](CS)C(=O)N[C@@H](CO)C(=O)N[C@@H](CC(=O)O)C(=O)O)[C@@H](C)O [ErbB2 pY1127]
- Kd (SH2 and PTB domains; protein PLCG2-N, PM assay replicate # 39337, array fabrication # 39329): 4.16 µM
- Kd (SH2 and PTB domains; [3]): 1.60 µM
- Kd (SH2 and PTB domains; [4]): 0.58 µM

SMILES: CSCC[C@H](NC(=O)[C@H](Cc1ccc(OP(=O)(O)O)cc1)NC(=O)[C@H](CCC(=O)O)NC(=O)[C@H](Cc1ccc(O)cc1)NC(=O)CNC(=O)[C@@H](N)CC(C)C)C(=O)N[C@@H](CC(=O)O)C(=O)N[C@H](C(=O)NCC(=O)N[C@@H](CO)C(=O)N[C@@H](CC(=O)O)C(=O)N[C@@H](CC(C)C)C(=O)N[C@@H](CC(=O)O)C(=O)O)C(C)C [ErbB3 1224 13-mer] (HELM PEPTIDE1{L.G.Y.E.[O=C([C@H](Cc1ccc(OP(=O)(O)O)cc1)N[*:1])[*:2]].M.D.V.G.S.D.L.D}$$$$V2.0)
- Kd [1]: 3.31 µM

SMILES: CSCC[C@H](NC(=O)[C@H](CCC(=O)O)NC(=O)[C@H](CCC(=O)O)NC(=O)[C@H](Cc1ccc(OP(=O)(O)O)cc1)NC(=O)CNC(=O)[C@H](CCC(N)=O)NC(=O)[C@H](CCC(=O)O)NC(=O)[C@@H](N)CO)C(=O)N[C@@H](CCCNC(=N)N)C(=O)N[C@@H](C)C(=O)N[C@@H](Cc1ccccc1)C(=O)N[C@@H](CCC(N)=O)C(=O)N[C@@H](CC(=O)O)C(=O)O [ErbB3 1289 13-mer] (HELM PEPTIDE1{S.E.Q.G.[O=C([C@H](Cc1ccc(OP(=O)(O)O)cc1)N[*:1])[*:2]].E.E.M.R.A.F.Q.D}$$$$V2.0)
- Kd (PIK3R1-N SH2 domain; protein PIK3R1-N, FP, mean of replicate hits): 0.25 µM

SMILES: CCN(CC)c1ccc2c(-c3ccc(C(=O)N[C@@H](CC(N)=O)C(=O)NCC(=O)N4CCC[C@H]4C(=O)N4CCC[C@H]4C(=O)N[C@@H](CCCCN)C(=O)N[C@@H](C)C(=O)N[C@@H](CCC(=O)O)C(=O)N[C@@H](CC(=O)O)C(=O)N[C@@H](CCC(=O)O)C(=O)N[C@@H](Cc4ccc(OP(=O)(O)O)cc4)C(=O)N[C@H](C(=O)N[C@@H](CC(N)=O)C(=O)N[C@@H](CCC(=O)O)C(=O)N4CCC[C@H]4C(=O)N[C@@H](CC(C)C)C(=O)N[C@@H](Cc4ccc(O)cc4)C(=O)N[C@@H](CC(C)C)C(=O)N[C@@H](CC(=O)O)C(=O)O)C(C)C)cc3C(=O)[O-])c3ccc(=[N+](CC)CC)cc-3oc2c1 [ErbB4 1202 (18-mer)] (HELM PEPTIDE1{[CCN(CC)c1ccc2c(-c3ccc(C(=O)[*:2])cc3C(=O)[O-])c3ccc(=[N+](CC)CC)cc-3oc2c1].N.G.P.P.K.A.E.D.E.[O=C([C@H](Cc1ccc(OP(=O)(O)O)cc1)N[*:1])[*:2]].V.N.E.P.L.Y.L.D}$$$$V2.0)
- Kd (SH2 and PTB domains; [4]): 1.53 µM
- Kd (SH2 and PTB domains; protein PLCG2-NC, PM assay replicate # 39351, array fabrication # 39336): 0.41 µM
- Kd (SH2 and PTB domains; [5]): 0.61 µM

SMILES: CC[C@H](C)[C@H](NC(=O)[C@H](CC(N)=O)NC(=O)[C@H](CC(N)=O)NC(=O)[C@H](CCCCN)NC(=O)[C@H](CC(C)C)NC(=O)[C@H](Cc1ccc(OP(=O)(O)O)cc1)NC(=O)[C@H](CCC(=O)O)NC(=O)[C@H](C)NC(=O)[C@H](CCCCN)NC(=O)CNC(=O)[C@H](CC(C)C)NC(=O)[C@@H](NC(=O)[C@H](CC(N)=O)NC(=O)[C@H](C)NC(=O)[C@@H](N)Cc1ccccc1)[C@@H](C)O)C(=O)N[C@@H](CC(C)C)C(=O)N[C@@H](CO)C(=O)N[C@@H](CC(=O)O)C(=O)O [ErbB4 pY1221 (18-mer)] (HELM PEPTIDE1{F.A.N.T.L.G.K.A.E.[O=C([C@H](Cc1ccc(OP(=O)(O)O)cc1)N[*:1])[*:2]].L.K.N.N.I.L.S.D}$$$$V2.0)
- Kd (SH2 and PTB domains; protein PLCG2-NC, PM assay replicate # 39307, array fabrication # 39286): 1.38 µM
- Kd (SH2 and PTB domains; [5]): 1.25 µM
